Measured values published in US6579874B2, “Substituted azoles” (Novartis AG, priority 1999, dated 2003).
Where a name gives a salt, the structure may show the parent alone. Blank lines part the entries; values can stand above or below the compound they belong to.

Experiments:
[1] = test system: TNF-α release from hPBMCs; assay: Assay for Inhibition of TNF-α Release from hPBMCs (IFNg/LPS stimulated, ELISA); assay type: cell-based; conditions: Homo sapiens, 3 h, IFNg (100 U/ml) and LPS, three hours, TNF-α in supernatant by ELISA, read-out: IC50 for suppression of TNF release
Experimental: Assay for Inhibition of TNF-α Release from hPBMCs
Human peripheral blood mononuclear cells (hPBMCs) are prepared from the peripheral blood of healthy volunteers using ficoll-hypaque density separation according to the method of Hansell et al., J. Imm. Methods (1991) 145: 105. and used at a concentration of 10^5 cells/well in RPMI 1640 plus 10% FCS. Cells are incubated with serial dilutions of the test compounds for 30 minutes at 37° C. prior to the addition of IFNg (100 U/ml) and LPS ([…]) and subsequently further incubated for three hours. Incubation is […] by centrifugation at 1400 RPM for 10 min. TNF-α in the supernatant is measured using a commercial ELISA (Innotest hTNFa, available from Innogenetics N.V., Zwijnaarde, Belgium). Agents of the Invention are tested at concentrations of from […]. Exemplified Agents of the Invention typical suppress TNF release in this assay with an IC50 of from about 500 nM to about 10 nM or less when tested in this assay.

p38 MAP kinase = biological target: T1, p38 MAP kinase (Mus musculus, UniProt P47811); assay: p38 MAP Kinase Assay (phosphorylation of GST-ATF-2, ELISA detection); assay type: biochemical, murine; conditions: His-p38 MAP kinase, GST-ATF-2 substrate, ATP 120 μM, 1 h at 37° C.; read-out: IC50 for p38 MAP kinase inhibition
T1 construct: a fusion protein comprising full length murine p38 MAP kinase and a His tag; host or cells: E. coli
Experimental: The substrate (GST-ATF-2; a fusion protein comprising amino acids 1-109 of ATF-2 and the GST protein obtained by expression in E. coli) is coated onto the webs of microtiter plates (50 μl/well; 1 μg/ml in PBS/0.02% Na azide) overnight at 4° C. The following day, the microtiter plates are washed four times with PBS/0.5% Tween 20/0.02% Na azide and are blocked with PBS/2% BSA/0.02% Na Azide for 1 h at 37° C. Plates are washed again 4 times with PBS/0.5% Tween 20/0.02% Na azide. The kinase cascade reaction is then started by adding the following reactants in 10 μl aliquots to a final reaction volume of 50 μl.
1. Agents of the Invention titrated from 10 to 0.001 μM in 10-fold dilutions or solvent (DMSO) or H2O.
2. Kinase buffer (5×); pH 7.4; 125 mM Hepes (Stock at 1M; Gibco #15630-056), 125 mM β-glycerophosphate (Sigma #G-6251):125 mM MgCl2 (Merck #5833); 0.5 mM Sodium orthovanadate (Sigma #5-6508), 10 mM DTT (Boehringer Mannheim #708992). The (5×) kinase buffer must be prepared fresh the day of the assay from 5× stock solutions kept at RT. DTT is kept at −20° C. and is added as the last reagent.
3. His-p38 MAP kinase (10 ng/well; Novartis—a fusion protein comprising full length murine p38 MAP kinase and a His tag, obtained by expression in E. coli)
4. cold ATP (final concentration 120 μM; Sigma #A-9187)
After 1 h at 37° C. the kinase reaction is terminated by washing the plates four times as previously described. Phosphorylated GST-ATF-2 is then detected by adding:
1. the PhosphoPlus ATF-2 (Thr71) Antibody (50 μl/well; 1/1000 final dilution in PBS/2% BSA/0.02% Na Azide; New England Biolabs #9221L) for 90 min at RT.
2. Biotin labelled goat-anti-rabbit IgG (50 μl/well; 1/3000 final dilution in PBS/2% BSA/0.02% Na Azide; Sigma #B-9642) for 90 min at RT.
3. Streptavidin-alkaline phosphatase (50 μl/well; 1/5000 dilution in PBS/2% BSA/0.02% Na Azide; Jackson Immunoresearch #016-050-84) for 30 min at RT.
4. Substrate (100 μl/well; Sigma 104 Phosphatase substrate tablets, 5 mg/tablet; #104-105; 1 mg/ml in substrate buffer, Diethanolamine (97 ml/l; Merck #803116)+MgCl2.6H2O (100 mg/l; Merck #5833)+Na Azide (0.2 g/l)+HCl 1M to pH 9.8) 30 min at RT.
After step 1, 2 and 3 the microtiter plates are washed four times with PBS/0.5% Tween 20/0.02% Na azide. After step 4, the plates are read in a Bio-Rad microplate reader in a dual wavelength mode (measurement filter […] and reference filter […]). The background value (without ATP) is subtracted and IC50 values are calculated using the Origin computer program (4 parameter logistic function).

T1 sequence (P47811 whole entry, the tested form may be a part): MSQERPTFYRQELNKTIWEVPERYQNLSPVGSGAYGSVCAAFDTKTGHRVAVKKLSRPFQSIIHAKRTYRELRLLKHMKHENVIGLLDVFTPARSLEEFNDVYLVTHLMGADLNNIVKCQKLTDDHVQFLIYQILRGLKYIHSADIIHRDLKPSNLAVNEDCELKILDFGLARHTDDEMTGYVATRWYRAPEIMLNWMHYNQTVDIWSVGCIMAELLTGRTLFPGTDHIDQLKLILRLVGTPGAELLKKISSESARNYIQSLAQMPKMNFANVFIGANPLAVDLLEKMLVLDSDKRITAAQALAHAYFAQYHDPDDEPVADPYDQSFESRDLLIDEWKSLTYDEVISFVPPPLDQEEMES

Compound: CN1CCC(O)(c2cn(-c3ccnc(NC4CCCC4)n3)c(-c3cccc(C(F)(F)F)c3)n2)CC1 (as salt: fumarate) [Example 33, 2-(3-Trifluoromethylphenyl)-4-(1-methyl-4-hydroxypiperidin-4-yl)-1-(2-cyclopentylamino-4-pyrimidyl)imidazole]
- melting point: 189 to 193 °C

Compound: C[C@H](Nc1nccc(-c2oc(C3CCN(C)CC3)nc2-c2ccc(F)cc2)n1)c1ccccc1 [Example 4]
- IC50 [1]: 1 to 10 nM

Compound: C[C@H](Nc1nccc(-c2oc(C3CCNCC3)nc2-c2ccc(F)cc2)n1)c1ccccc1 [Example 8, 4-(4-Fluorophenyl)-5-(2-[1-(S)-phenylethyl]amino-4-pyrimidyl)-2-(4-NH-piperidine-1-yl)oxazole]
- IC50 [1]: 1 to 10 nM

Compound: Fc1ccc(-c2nc(C3CCNCC3)oc2-c2ccnc(NCC3CC3)n2)cc1 [Example 9, 4-(4-Fluorophenyl)-5-(2-cyclopropylmethylamino-4-pyrimidyl)-2-(4-NH-piperidin-1-yl)oxazole]
- IC50 [1]: 1 to 10 nM
- IC50 (p38 MAP kinase): 1 to 10 nM

Compound: C[C@H](Nc1cc(-c2oc(C3(O)CCN(C)CC3)nc2-c2ccc(F)cc2)ccn1)c1ccccc1 [Example 14]
- IC50 (p38 MAP kinase): 1 to 10 nM

Compound: CN1CCC(O)(c2nc(-c3ccc(F)cc3)c(-c3ccnc(NCC4CC4)c3)o2)CC1 [Example 15]
- IC50 (p38 MAP kinase): 1 to 10 nM

Compound: Fc1ccc(-c2nc(C3CCNCC3)oc2-c2ccnc(NCC3CC3)c2)cc1 [Example 19, 4-(4-Fluorophenyl)-2-(4-NH-piperidine-1-yl)-5-(2-cyclopropylmethylamino-4-pyridyl)oxazole]
- IC50 [1]: 1 to 10 nM

Compound: CC(C)(O)CN1CCC(c2nc(-c3ccc(F)cc3)c(-c3ccnc(NCC4CC4)c3)o2)CC1 [Example 20, 4-(4-Fluorophenyl)-2-(4-N-(2-hydroxy-2-methyl)propylpiperidine-1-yl)-5-(2-cyclopropylmethylamino-4-pyridyl)oxazole]
- IC50 [1]: 1 to 10 nM

Compound: CC(C)(O)CN1CCC(c2nc(-c3ccc(F)cc3)c(-c3ccnc(NC4CCCCC4)c3)o2)CC1 [Example 23, 4-(4-Fluorophenyl)-2-(4-N-(2-hydroxy-2-methyl)propylpiperidine-1-yl)-5-(2-cyclohexylamino-4-pyridyl)oxazole]
- IC50 [1]: 1 to 10 nM

Compound: CN1CCC(O)(c2cn(-c3ccnc(NC4CCCCC4)n3)c(-c3ccc(F)cc3)n2)CC1 [Example 31]
- IC50 [1]: 1 to 10 nM

Compound: CN1CCC(O)(c2cn(-c3ccnc(NC4CC4)n3)c(-c3cccc(C(F)(F)F)c3)n2)CC1 [Example 32, 2-(3-Trifluoromethylphenyl)-4-(1-methyl-4-hydroxypiperidin-4-yl)-1-(2-cyclopropylamino-4-pyrimidyl)imidazole]
- IC50 [1]: 1 to 10 nM

Compound: CN1CCC(O)(c2cn(-c3ccnc(NC4CCCC4)n3)c(-c3cccc(C(F)(F)F)c3)n2)CC1 [Example 33, 2-(3-Trifluoromethylphenyl)-4-(1-methyl-4-hydroxypiperidin-4-yl)-1-(2-cyclopentylamino-4-pyrimidyl)imidazole]
- IC50 [1]: 1 to 10 nM

Compound: C[C@H](Nc1nccc(-n2cc([C@]3(O)C[C@H]4CC[C@@H](C3)N4C(=O)OC(C)(C)C)nc2-c2ccc(F)cc2)n1)c1ccccc1 [Example 59, 2-(4-Fluorophenyl)-1-(2-(1-(S)-phenylethyl)amino-4-pyrimidyl)-4-(3a-hydroxy-N-tert.butyloxycarbonylnortropan-3b-yl)imidazole]
- IC50 [1]: 1 to 10 nM

Compound: C[C@H](Nc1nccc(-n2cc([C@]3(O)C[C@H]4CC[C@@H](C3)N4)nc2-c2ccc(F)cc2)n1)c1ccccc1 [Example 60, 2-(4-Fluorophenyl)-1-(2-(1-(S)-phenylethyl)amino-4-pyrimidyl)-4-(3a-hydroxy-nortropan-3b-yl)imidazole]
- IC50 [1]: 1 to 10 nM

Second part, the compound after the results:

- IC50 [1]: 1 to 10 nM
- IC50 (p38 MAP kinase): 1 to 10 nM
Compound: C[C@H](Nc1nccc(-n2cc(-c3ccncc3)nc2-c2ccc(F)cc2)n1)c1ccccc1 [Example 35, 2-(4-Fluorophenyl)-1-(2-[1-(S)-phenyl-ethyl]amino-4-pyrimidyl) 4-(4-pyridyl)imidazole]

- IC50 [1]: 1 to 10 nM
- IC50 (p38 MAP kinase): 1 to 10 nM
Compound: C[C@H](Nc1nccc(-n2cc(-c3cccc(Cl)c3)nc2-c2ccc(F)cc2)n1)c1ccccc1 [Example 49, 2-(4-Fluorophenyl)-1-(2-[1-(S)-phenyl-ethyl]amino-4-pyrimidyl)-4-(3-chlorophenyl)imidazole]

- IC50 [1]: 1 to 10 nM
Compound: C[C@H](Nc1nccc(-n2cc(/C=N/NC(=N)N)nc2-c2ccc(F)cc2)n1)c1ccccc1 [Example 50, 2-(4-Fluorophenyl)-1-(2-[1-(S)-phenyl-ethyl]amino-4-pyrimidyl)-4-methyleneaminoguanidinyl-imidazole]

- IC50 [1]: 1 to 10 nM
- IC50 (p38 MAP kinase): 1 to 10 nM
Compound: CCOC(=O)N1CCC(c2cn(-c3ccnc(N[C@@H](C)c4ccccc4)n3)c(-c3ccc(F)cc3)n2)CC1 [Example 51, 2-(4-Fluorophenyl)-1-(2-(1-(S)-phenylethyl)amino-4-pyrimidyl)-4-(4-ethoxycarbonyl)piperidine-1-yl Imidazole]

- IC50 [1]: 1 to 10 nM
- IC50 (p38 MAP kinase): 1 to 10 nM
Compound: C[C@H](Nc1nccc(-n2cc(C3CCNCC3)nc2-c2ccc(F)cc2)n1)c1ccccc1 [Example 52]

- IC50 [1]: 1 to 10 nM
Compound: C[C@H](Nc1nccc(-n2cc(C3CCN(C=O)CC3)nc2-c2ccc(F)cc2)n1)c1ccccc1 [Example 53, 2-(4-Fluorophenyl)-1-(2-(1-(S)-phenylethyl)amino-4-pyrimidyl)-4-(4-formyl)-piperidine-1-yl Imidazole]

- IC50 [1]: 1 to 10 nM
Compound: C[C@H](Nc1nccc(-n2cc(C3CCN(CC(C)(C)O)CC3)nc2-c2ccc(F)cc2)n1)c1ccccc1 [Example 54]

- IC50 [1]: 1 to 10 nM
Compound: CC(C)(O)CN1CCC(c2cn(-c3ccnc(NC4CCCC4)n3)c(-c3ccc(F)cc3)n2)CC1 [Example 55]

- IC50 [1]: 1 to 10 nM
Compound: C[C@H](Nc1nccc(-n2cc(C3CCN(C)CC3)nc2-c2ccc(F)cc2)n1)c1ccccc1 [Example 56, 2-(4-Fluorophenyl)-1-(2-(1-(S)-phenylethyl)amino-4-pyrimidyl)-4-(4-methyl)-piperidine-1-yl Imidazole]
